Test results published in paper PMC7778589, “Photosensitizer-based multimodal PSMA-targeting ligands for intraoperative detection of prostate cancer” (Theranostics, 2021).
Each block holds one compound with its values, some of them ahead of it.

Tests used:
[1] = biological target: T1, PSMA-expressing LS174T-PSMA cells (Homo sapiens, UniProt Q04609); assay: Competitive binding assay (IC50); details: on ice 2 h
T1 construct: expressed in transfected cells; host or cells: LS174T colon carcinoma cells (human), stably transfected with pcDNA3.1-hPSMA
T1 sequence (Q04609 whole entry): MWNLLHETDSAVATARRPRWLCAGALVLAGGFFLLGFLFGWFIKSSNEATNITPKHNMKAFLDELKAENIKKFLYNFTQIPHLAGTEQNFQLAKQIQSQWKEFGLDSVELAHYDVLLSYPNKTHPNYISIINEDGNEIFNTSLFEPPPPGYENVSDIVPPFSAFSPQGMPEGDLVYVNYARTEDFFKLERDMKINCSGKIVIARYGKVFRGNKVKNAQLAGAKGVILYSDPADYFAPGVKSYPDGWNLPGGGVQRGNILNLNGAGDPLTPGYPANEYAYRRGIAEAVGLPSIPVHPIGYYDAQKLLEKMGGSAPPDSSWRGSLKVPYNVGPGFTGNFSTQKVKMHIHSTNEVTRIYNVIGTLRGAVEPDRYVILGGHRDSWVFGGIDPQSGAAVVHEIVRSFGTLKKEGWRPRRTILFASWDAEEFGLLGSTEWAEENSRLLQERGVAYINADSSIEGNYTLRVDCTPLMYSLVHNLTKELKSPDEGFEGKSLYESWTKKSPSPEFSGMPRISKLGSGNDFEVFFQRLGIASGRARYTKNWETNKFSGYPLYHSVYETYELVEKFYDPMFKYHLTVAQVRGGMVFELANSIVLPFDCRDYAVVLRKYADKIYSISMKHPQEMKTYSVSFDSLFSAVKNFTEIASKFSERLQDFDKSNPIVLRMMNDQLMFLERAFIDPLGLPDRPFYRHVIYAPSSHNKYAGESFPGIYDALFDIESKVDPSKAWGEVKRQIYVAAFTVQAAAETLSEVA
Method: (§1) Binding and internalization characteristics of all ligands were compared using LS174T-PSMA and wildtype LS174T cells. Cells were cultured to confluency in 6-wells plates followed by incubation at 37 °C for 2 h in 1 ml binding buffer (RPMI/0.5% BSA) with 50,000 counts per minute (cpm) of ^111In-labeled ligand (0.1-0.25 pmol/well). Nonspecific binding was determined by coincubation with 2-(phosphonomethyl)pentane-1,5-dioic acid (2-PMPA, 21.57 µM). PSMA-specific binding was defined as nonspecific binding subtracted from total binding. To retrieve the membrane-bound fraction, cells were washed with PBS twice and incubated with acid buffer (0.1 M acetic acid, 154 mM NaCl, pH 2.6) for 10 minutes at 0 °C. […] Membrane-bound activity and intercellular activity fractions were measured in a gamma-counter (2480 WIZARD^2 Automatic Gamma Counter, PerkinElmer), [25]. […] Stability was evaluated by RP-HPLC analysis after 2 h of incubation at 37 °C. […]
(§2) Scatchard analysis was performed to determine the dissociation constant (Kd) of the N064 ligand. […] Non-specific binding was determined by coincubation with 1 µM PSMA-617. […] Cell lysis was collected from the plate and the cell-associated activity was measured in a γ-counter. […] To determine PSMA antigen density per cell and the Kd of multimodal ligands, data were analyzed by linear regression using GraphPad Prism software. […]

[2] = biological target: T2, LS174T-PSMA-positive cells (Homo sapiens, UniProt Q04609); assay: Scatchard analysis (Kd); format: binding; details: on ice 4 h
T2 construct: expressed in transfected cells; host or cells: LS174T colon carcinoma cells (human), stably transfected with pcDNA3.1-hPSMA
T2 sequence (Q04609 whole entry): as above
Method: as §1, §2

[3] = biological target: T3, PSMA-expressing LS174T cells (LS174T-PSMA) (Homo sapiens, UniProt Q04609); assay: Binding and internalization assay with 111In-labeled ligands; format: cell-based; details: 2 h 37 °C
T3 construct: expressed in transfected cells; host or cells: LS174T colon carcinoma cells (human), stably transfected with pcDNA3.1-hPSMA
T3 sequence (Q04609 whole entry): as above
Method: Cell lines were purchased from the American Type Culture Collection. LS174T colon carcinoma cells were stably transfected with human PSMA using the plasmid pcDNA3.1-hPSMA and cultured in RPMI 1640 medium supplemented with 2 mM glutamine, 10% FCS, and 0.3 mg/ml G418 at 37 °C in a humidified atmosphere with 5% CO2 [5].
Binding and internalization characteristics of all ligands were compared using LS174T-PSMA and wildtype LS174T cells. Cells were cultured to confluency in 6-wells plates followed by incubation at 37 °C for 2 h in 1 ml binding buffer (RPMI/0.5% BSA) with 50,000 counts per minute (cpm) of ^111In-labeled ligand (0.1-0.25 pmol/well). Nonspecific binding was determined by coincubation with 2-(phosphonomethyl)pentane-1,5-dioic acid (2-PMPA, 21.57 µM). PSMA-specific binding was defined as nonspecific binding subtracted from total binding. To retrieve the membrane-bound fraction, cells were washed with PBS twice and incubated with acid buffer (0.1 M acetic acid, 154 mM NaCl, pH 2.6) for 10 minutes at 0 °C. After incubation, the membrane bound fraction (in acid buffer) was collected, cells were washed, lysed with 0.1 M NaOH and cell lysis (intercellular activity) was collected. Membrane-bound activity and intercellular activity fractions were measured in a gamma-counter (2480 WIZARD^2 Automatic Gamma Counter, PerkinElmer), [25]. Human serum was used to determine the in vitro serum stability of the multimodal ligands (0.8 µg/ml serum, 5 MBq/μg labeling). After incubation for 2 h at 37°C, serum proteins were precipitated by adding a 1:1 (v/v) volume of acetonitrile followed by 5 min of centrifugation at 3220×g. Stability was evaluated by RP-HPLC analysis after 2 h of incubation at 37 °C. […] Experimental details are described in the supplementary materials and methods.

[4] = Lipophilicity, PBS/n-octanol; format: physicochemical; details: radiolabeled ligand
Method: Tubes were vortexed vigorously for 1 min and centrifuged for 5 min at 201×g for phase separation. The concentration of radioactivity in a defined volume of each layer was measured in a well-type gamma-counter.

[5] = In vitro serum stability; format: in vitro ADME, human; details: 2 h, 37°C, RP-HPLC
Method: Binding and internalization characteristics of all ligands were compared using LS174T-PSMA and wildtype LS174T cells. Cells were cultured to confluency in 6-wells plates followed by incubation at 37 °C for 2 h in 1 ml binding buffer (RPMI/0.5% BSA) with 50,000 counts per minute (cpm) of ^111In-labeled ligand (0.1-0.25 pmol/well). Nonspecific binding was determined by coincubation with 2-(phosphonomethyl)pentane-1,5-dioic acid (2-PMPA, 21.57 µM). PSMA-specific binding was defined as nonspecific binding subtracted from total binding. To retrieve the membrane-bound fraction, cells were washed with PBS twice and incubated with acid buffer (0.1 M acetic acid, 154 mM NaCl, pH 2.6) for 10 minutes at 0 °C. After incubation, the membrane bound fraction (in acid buffer) was collected, cells were washed, lysed with 0.1 M NaOH and cell lysis (intercellular activity) was collected. Membrane-bound activity and intercellular activity fractions were measured in a gamma-counter (2480 WIZARD^2 Automatic Gamma Counter, PerkinElmer), [25]. Human serum was used to determine the in vitro serum stability of the multimodal ligands (0.8 µg/ml serum, 5 MBq/μg labeling). After incubation for 2 h at 37°C, serum proteins were precipitated by adding a 1:1 (v/v) volume of acetonitrile followed by 5 min of centrifugation at 3220×g. Stability was evaluated by RP-HPLC analysis after 2 h of incubation at 37 °C. […]

[6] = test system: LS174T-PSMA and LS174T xenografts; assay: Biodistribution of 111In-labeled multimodal ligands; format: in vivo, BALB/c nude mice; details: 0.3 nmol, 2 h p.i.
Method: Animal experiments were performed in 8-10 weeks old male BALB/c nude mice (Janvier). Animals were housed in individually ventilated cages (Blue line IVC, 4-5 mice per cage) under nonsterile standard conditions with cage enrichment present and free access to chlorophyll-free animal chow (Sniff GmbH) and water. Mice were subcutaneously inoculated with 3.0 x 10^6 LS174T-PSMA cells in the left flank and 1.5 × 10^6 LS174T cells in the right flank, diluted in 200 μL of complete RPMI 1640 medium. Eleven days after tumor cell inoculation when xenografts were approximately 0.1 cm^3, tracers were injected intravenously via the tail vein. The researchers were not blinded for the experimental groups and tumor-bearing mice were block-randomized into groups based on tumor size. All experiments were approved by the institutional Animal Welfare Committee of the Radboud university medical center and were conducted in accordance to the guidelines of the Revised Dutch Act on Animal Experimentation.
Mice were injected intravenously with 10 MBq ^111In-labeled PSMA ligands (0.3 nmol, molar activity 33.3 MBq/nmol) in PBS/0.5% BSA. Two hours post injection, mice were euthanized by CO2/O2-asphyxation and images were acquired with the IVIS fluorescence imaging system (Xenogen VivoVision IVIS Lumina II, Caliper Life Sciences), using an acquisition time of 10 s. Subsequently, µSPECT/CT images were acquired (U-SPECT II, MILabs) with a 1.0 mm diameter pinhole mouse collimator tube [26]. Mice were scanned for 30 min followed by a CT scan (spatial resolution 160 μm, 65 kV, 615 μA) for anatomical reference. µSPECT/CT scans were reconstructed with MILabs reconstruction software, using an ordered-subset expectation maximization algorithm, energy windows 154 - 188 keV and 220-270 keV, 3 iterations, 16 subsets, voxel size of 0.4 mm. SPECT/CT scans were analyzed and maximum intensity projections (MIPs) were created using the Inveon Research Workplace software version 4.1 (Siemens Preclinical Solutions). NIRF images were analyzed using Living Image software version 4.2 (Caliper Life Sciences). Tissues of interest were dissected, weighed and measured for radioactivity in a gamma-counter as described above. In the fluorescence-guided surgery feasibility study, pre-operative imaging was performed to visualize tumor tissue. After white light resection, NIRF imaging was repeated to assess if any remaining tumor was present.

IC50 [1]: 52.7 nM
Kd [2]: 15 ± 1.1 nM
SMILES: O=C(O)CC[C@H](NC(=O)N[C@@H](CCCCNC(=O)[C@H](Cc1ccc2ccccc2c1)NC(=O)[C@H]1CC[C@H](CNC(=O)CN2CCN(CC(=O)O)CCN(CC(=O)O)CCN(CC(=O)O)CC2)CC1)C(=O)O)C(=O)O [PSMA-617]

Internalized fraction [3]: 0.9 ± 0.06
Membrane bound fraction [3]: 0.4 ± 0.05
LogD [4]: -2.4 ± 0.15
Stability in human serum [5]: stable
Adrenals [6]: 0.9 %ID/g
Blood [6]: 0.2 %ID/g
Bone [6]: 0.3 %ID/g
Bone marrow [6]: 0.3 %ID/g
Duodenum [6]: 0.2 %ID/g
Heart [6]: 0.3 %ID/g
Kidney [6]: 59 %ID/g
Liver [6]: 0.5 %ID/g
Lung [6]: 0.4 %ID/g
Muscle [6]: 0.1 %ID/g
Pancreas [6]: 0.2 %ID/g
Prostate [6]: 0.5 %ID/g
Salivary glands [6]: 0.4 %ID/g
Spleen [6]: 1.3 %ID/g
Stomach [6]: 0.3 %ID/g
Tumor+ LS174T-PSMA [6]: 6.5 %ID/g
Tumor- LS174T [6]: 0.4 %ID/g
Tumor/Blood ratio [6]: 41.1
Tumor/Kidney ratio [6]: 0.2
Tumor/Liver ratio [6]: 13.7
Tumor/Muscle ratio [6]: 71.9
Tumor/Negative tumor ratio [6]: 24.1
Tumor/Prostate ratio [6]: 17.2
Tumor/Salivary gland ratio [6]: 21.5
Tumor/Spleen ratio [6]: 5.7
SMILES: C[Si](C)(CCC[N+](CCCS(=O)(=O)O)(CCCS(=O)(=O)O)CCCS(=O)(=O)O)O[Si-2]123(O[Si](C)(C)CCC[N+](CCCS(=O)(=O)O)(CCCS(=O)(=O)O)CCCS(=O)(=O)O)n4c5c6ccccc6c4N=C4c6cccc(OCCCOC(=O)NCCCCCC(=O)NCCCC[C@H](NC(=O)CCC(C(=O)O)N7CCN(CC(=O)O)CCN(CC(=O)O)CCN(CC(=O)O)CC7)C(=O)NCCOCCOCCOCCOCCC(=O)N[C@H](Cc7ccccc7)C(=O)N[C@@H](CCC(=O)O)C(=O)N[C@@H](CCC(=O)O)C(=O)NCCCCCC(=O)NCCCC[C@H](NC(=O)N[C@@H](CCC(=O)O)C(=O)O)C(=O)O)c6C(=[N+]41)N=c1c4ccccc4c(n12)=NC1=[N+]3C(=N5)c2ccccc21.[Na+].[Na+].[Na+].[Na+] (stereo partly shown) [N111]
